Experiments:
human iNKT cells = settings: cited from earlier work
[1] = tested on: human iNKT cells and NK cells; assay: In vitro transactivation assay (CFSE-labeled iNKT cells co-cultured with PBMC); format: cell-based; settings: for IL-12 levels in supernatants / IL-13 levels in supernatants / IL-18 levels in supernatants / global IFNγ production in supernatants: 24 h, ELISA
Method: iNKT cells were stained for 5 minutes with 1–20 µM of CFSE (Molecular probes) and 5% FCS in PBS and washed twice. As a positive control, a fraction of CFSE-labeled iNKT cells were preactivated for 30 minutes with 1 µg/mL of PMA and 250 ng/mL of Ionomycin (Sigma-Aldrich) in culture medium and extensively washed. The experiment was initiated by adding CFSE-labeled unstimulated or PMA/Ionomycin-preactivated iNKT cells to freshly prepared PBMC pulsed with vehicle or αGalCer analogs at the indicated concentrations and at an iNKT/PBMC ratio of 1/10 or 1/40. Supernatants and cells were harvested from parallel conditions after the indicated time of co-culture. For intracellular cytokine staining, brefeldin A (Golgiplug, BD Biosciences) was added 4 h before harvesting the cells, which were fixed with 1% paraformaldehyde and permeabilized with 0.1% saponin (Sigma-Aldrich) prior to mAb staining. Experiments with blocking antibodies were performed with 10 µg/mL of preservative-free mAbs, including isotype matched control, anti-IL-2, anti-IL-12, anti-IFNγ and anti-CD40L (all from BD Biosciences) or anti-IL-18 (MBL). For detection of CD40L expression by iNKT cells, co-cultures of iNKT and PBMC were prepared as above, except that monensin (Golgistop, BD Biosciences) and fluorescent CD40L specific mAb (1/10 or 1/20 final dilution) were added at the beginning of the experiment, as previously described.
Figure 6 A novel in vitro “transactivation assay” to assess the ability of human iNKT cells to activate other leukocytes. (A) Format for analysis of transactivation of bystander leukocytes. Flow cytometric analysis was carried out for culture containing iNKT cells co-cultured for 24 hours with fresh human PBMC at a 1/10 ratio. For the intracellular detection of IFNγ, Brefeldin A was added for the last 4 hours. Representative electronic gating is shown for the discrimination of CFSE-labeled iNKT cells, B cells, T cells, and NK cells to measure IFNγ expression (or CD69 expression, not shown). Filled black histograms show staining with vehicle control and are overlaid with open gray histograms for stimulation with 100 nM of KRN7000. (B) Dose-dependent IFNγ and CD40L expression by iNKT cells (top and middle graph, respectively) and IFNγ production by transactivated NK cells (bottom graph), after 24 h of co-culture of CFSE-labeled iNKT cells and PBMCs at a 1/10 ratios and the indicated concentration of either KRN7000 (black filled circles) or the adamantanoyl (AD) analog (open circles). Data are presented for a CD4^+ clone (HDD3), and similar results (not shown) were obtained with a DN clone (HDE3). (C) Effect of specific blockade of various cytokines and CD40L on the activation of iNKT cells and transactivated NK cells. CFSE-labeled iNKT cells and PBMCs were co-cultured at a 1/40 ratio for the indicated time, in the presence of KRN7000 at 25 nM and 10 µg/mL of isotype matched control or specific blocking antibodies as indicated. Average percentages of IFNγ^+ iNKT cells and NK cells, assessed by intracellular staining at 24, 48 and 66 hours, are indicated in the left and right plots, respectively.
Figure 7 Comparison of αGalCer analogs for their ability to induce NK cell transactivation. (A) iNKT cell clones were co-cultured for 24 hours with fresh human PBMC at a 1/10 ratio with 100 nM of the indicated analogs, and Brefeldin A was added for the last 4 hours. The percentages of IFNγ^+ iNKT cells (open bars) and IFNγ^+ NK cells (filled bars) are indicated. Cytokine levels were assessed by ELISA in supernatants from identical conditions in absence of Brefeldin A treatment: (B) IFNγ levels (open bars) and IL-13 levels (filled bars); the detection limit was 82.3 ng/mL for both cytokines. (C) IL-12 levels (open bars) and IL-18 levels (filled bars); the detection limit was 27.4 ng/mL. Results obtained with a CD4^+ clone (HDD3) are presented, and similar data (not shown) were obtained with a DN clone (HDE3).

human iNKT cell clones = assay: Cytokine responses of iNKT cell clones, Hela-CD1d cells compared with monocyte-derived DC as APC; format: cell-based; settings: limited analog concentrations
Excerpt: CD1d-transfected Hela cells might not be representative of the presentation by DCs, so we performed a comparative analysis, with more limited analog concentrations, between Hela-CD1d cells and monocyte-derived DC (Supplementary Figure S5). […] However we observed a higher cytokine levels produced upon stimulation with Hela cells, which can be explained by a higher CD1d expression.
Supplementary file pone.0014374.s005.tif: Figure S5 Comparison of cytokine responses of human iNKT cell clones between CD1d-transfected HeLa cells and Dendritic Cells, with a limited range of analog concentrations. CD1d-transfected HeLa cells (black bars) and monocyte-derived DCs (white bars) were incubated overnight in parallel with increasing concentrations of KRN7000, C20:2 (tested from left to right at 0.1, 1, 10 and 100 nM,) and higher concentrations of other analogs (10, 100 nM, 1 and 10 µM), then used as APC for iNKT cell stimulation. After 24 h of co-culture, supernatants were harvested, and cytokine levels were measured by ELISA. The sensitivity of detection was 27.4 pg/mL for IL-4 and 82.3 pg/mL for IL-13 and IFNγ. The data shown were generated with a CD4+ iNKT cell clone (HDD3) and a double negative (DN, HDE3). (0.12 MB TIF) Click here for additional data file.

Structure (SMILES)	agonist activity for human iNKT cells (human iNKT cells)	IL-12 levels in supernatants ([1]; 100 nM)	IL-13 levels in supernatants ([1]; 100 nM)	IL-18 levels in supernatants ([1]; 100 nM)	global IFNγ production in supernatants ([1]; 100 nM)	agonist strength with Hela-CD1d cells and DC (human iNKT cell clones)	IFNγ production in bystander leukocytes (intracellular staining) ([1]; 100 nM, iNKT/PBMC 1/10)	CD69 induction in bystander leukocytes upon iNKT cell stimulation ([1]; not shown)
CCCCC/C=C\C/C=C\CCCCCCCCCC(=O)N[C@@H](CO[C@H]1O[C@H](CO)[C@H](O)[C@H](O)[C@H]1O)[C@H](O)[C@H](O)CCCCCCCCCCCCCC [C20:2]	strong agonist	detectable IL-12 generation	high IL-13 levels	enhanced IL-18 levels compared to vehicle control	high global production of IFNγ	strong agonists	–	–
CCCCC/C=C\C/C=C\C/C=C\C/C=C\CCCC(=O)N[C@@H](CO[C@H]1O[C@H](CO)[C@H](O)[C@H](O)[C@H]1O)[C@H](O)[C@H](O)CCCCCCCCCCCCCC [C20:4]	–	detectable IL-12 generation	high IL-13 levels	enhanced IL-18 levels compared to vehicle control	high global production of IFNγ	–	–	–
CCCCCCCCCCCCCCCCCCCCCCCCCC(=O)N[C@@H](CO[C@H]1O[C@H](CO)[C@H](O)[C@H](O)[C@H]1O)[C@H](O)[C@H](O)CCCCCCCCCCCCCC [KRN7000, reference compound]	–	–	–	–	–	strong agonists	detectable at 24 h in NK cells, but not in T cells or B cells	nearly all B cells and NK cells, but not T cells, became CD69^+

Reference: article PMC3003687, “α-Galactosylceramide Analogs with Weak Agonist Activity for Human iNKT Cells Define New Candidate Anti-Inflammatory Agents” (PLoS ONE, 2010)
